The values that follow come from patent US20230159546A1, “NOVEL SPIROPYRROLIDINE DERIVED ANTIVIRAL AGENTS” (Enanta Pharmaceuticals, Inc., priority 2021, published 2023).

The term IC50 denotes the concentration at which inhibition is half-maximal.

The target of the test is SARS-CoV-2 3CL-protease (Severe acute respiratory syndrome coronavirus 2, UniProt P0DTD1). The experiment in a line: SARS-CoV-2 3C-like (3CL) protease fluorescence assay (FRET). In kind it is biochemical. The following applies: recombinant SARS-CoV-2 3CL-protease 10 nM, 30 min preincubation at RT, duplicate; read-out: FRET IC50.
Turning to `N#C[C@@H]1C[C@@]2(CN1C(=O)C(=O)OC1CCCC1)C(=O)Nc1ccccc12` [Example 112], the IC50 was more than 1000 nM.
Regarding `N#C[C@@H]1C[C@@]2(CN1C(=O)C(=O)Nc1ccccc1)C(=O)Nc1ccccc12` [Example 73], the IC50 was more than 1000 nM.
The figure for `N#C[C@@H]1C[C@@]2(CN1C(=O)C(=O)NC1CCCC1)C(=O)Nc1ccccc12` [Example 90] is 100 to 1000 nM; for `N#C[C@@H]1C[C@@]2(CN1C(=O)C1(C(=O)Nc3ccccc3)CC1)C(=O)Nc1ccccc12` [Example 75] it is more than 1000 nM; for `CCNC(=O)C(=O)N1C[C@]2(C[C@H]1C#N)C(=O)Nc1ccccc12` [Example 88] it is more than 1000 nM.
As for `CC(C)NC(=O)C(C)(C)C(=O)N1C[C@]2(C[C@H]1C#N)C(=O)Nc1ccccc12` [Example 82], the figure is more than 1000 nM.
In the case of `N#C[C@@H]1C[C@@]2(CN1C(=O)C(=O)NCCc1ccccc1)C(=O)Nc1ccccc12` [Example 159], the IC50 is more than 1000 nM.
Consider `Cc1cccc(NC(=O)C(=O)N2C[C@]3(C[C@H]2C#N)C(=O)Nc2ccccc23)n1` [Example 168], for which the IC50 was more than 1000 nM.
As for `N#C[C@@H]1C[C@@]2(CN1C(=O)C(=O)Nc1ccc3cccnc3c1)C(=O)Nc1ccccc12` [Example 91], the figure is more than 1000 nM; as for `N#C[C@@H]1C[C@@]2(CN1C(=O)C(=O)NC1CCCCC1)C(=O)Nc1ccccc12` [Example 79], 100 to 1000 nM.
In the case of `N#C[C@@H]1C[C@@]2(CN1C(=O)C1(C(=O)c3ccccc3)CC1)C(=O)Nc1ccccc12` [Example 102], the half-inhibitory concentration (IC50) was more than 1000 nM.
For `N#C[C@@H]1C[C@@]2(CN1S(=O)(=O)NC1CC1)C(=O)Nc1ccccc12` [Example 58], the IC50 was more than 1000 nM.
The figure for `CC(C)(C)OC(=O)N[C@@H]1CC[C@H](NC(=O)C(=O)N2C[C@]3(C[C@H]2C#N)C(=O)Nc2ccccc23)C1` [Example 174] is more than 1000 nM; for `N#C[C@@H]1C[C@@]2(CN1C(=O)C(=O)Nc1ccc(C(F)(F)F)cn1)C(=O)Nc1ccccc12` [Example 162] it is more than 1000 nM.
The figure for `N#C[C@@H]1C[C@@]2(CN1S(=O)(=O)c1ccc(F)cc1)C(=O)Nc1ccccc12` [Example 56] is more than 1000 nM; for `N#C[C@@H]1C[C@@]2(CN1C(=O)[C@@H](Cc1ccccc1)C(=O)c1ccccc1)C(=O)Nc1ccccc12` [Example 95] it is more than 1000 nM.
For the molecule `N#C[C@@H]1C[C@@]2(CN1C(=O)C(=O)Nc1ccc(C(F)(F)F)nc1)C(=O)Nc1ccccc12` [Example 164], the IC50 is more than 1000 nM.
The figure for `CC(C)(C(=O)NC1CC1)C(=O)N1C[C@]2(C[C@H]1C#N)C(=O)Nc1ccccc12` [Example 83] is more than 1000 nM; for `N#C[C@@H]1C[C@@]2(CN1C(=O)CC(=O)N[C@@H]1CCC[C@H]1O)C(=O)Nc1ccccc12` [Example 172] it is more than 1000 nM; for `N#C[C@@H]1C[C@@]2(CN1S(=O)(=O)Nc1ccccc1)C(=O)Nc1ccccc12` [Example 85] it is more than 1000 nM.
As for `N#C[C@@H]1C[C@@]2(CN1S(=O)(=O)NC1CCC1)C(=O)Nc1ccccc12` [Example 59], the IC50 is more than 1000 nM.
Regarding `N#C[C@@H]1C[C@@]2(CN1S(=O)(=O)NC1CCCCC1)C(=O)Nc1ccccc12` [Example 61], the IC50 was more than 1000 nM.
As for `CCOC(=O)C(=O)N1C[C@]2(C[C@H]1C#N)C(=O)Nc1ccccc12` [Example 123], the figure is more than 1000 nM; as for `N#C[C@@H]1C[C@@]2(CN1C(=O)CC(=O)N[C@@H]1CC[C@@H](O)C1)C(=O)Nc1ccccc12` [Example 181], more than 1000 nM.
The figure for `Cc1ccc(NC(=O)C(=O)N2C[C@]3(C[C@H]2C#N)C(=O)Nc2ccccc23)nc1` [Example 163] is more than 1000 nM; for `N#C[C@@H]1C[C@@]2(CN1NC(=O)C1CC1)C(=O)Nc1ccccc12` [Example 140] it is more than 1000 nM.
Consider `N#C[C@@H]1C[C@@]2(CN1C(=O)OCc1nccs1)C(=O)Nc1ccccc12` [Example 86], for which the half-inhibitory concentration (IC50) was more than 1000 nM.
Take `N#C[C@@H]1C[C@@]2(CN1C(=O)CC(=O)N[C@@H]1CC[C@H](O)C1)C(=O)Nc1ccccc12` [Example 183]: the IC50 was more than 1000 nM.
As for `N#C[C@@H]1C[C@@]2(CN1C(=N)C1CC1)C(=O)Nc1ccccc12` [Example 148], the figure is more than 1000 nM; as for `N#C[C@@H]1C[C@@]2(CN1C(=O)C(=O)Nc1cnccc1C(F)(F)F)C(=O)Nc1ccccc12` [Example 176], more than 1000 nM; as for `N#C[C@@H]1C[C@@]2(CN1C(=O)CC(=O)N[C@@H]1CCC[C@@H]1O)C(=O)Nc1ccccc12` [Example 170], more than 1000 nM.
As to `N#C[C@@H]1C[C@@]2(CN1C(=O)c1cc3ccccc3[nH]1)C(=O)Nc1ccccc12` [Example 54], the IC50 was more than 1000 nM.
For `N#C[C@@H]1C[C@@]2(CN1C(=O)C(=O)NC1(c3ccccc3)CCCC1)C(=O)Nc1ccccc12` [Example 175], the IC50 is less than 100 nM.
With `N#C[C@@H]1C[C@@]2(CN1C(=O)C(=O)NCCc1cc(F)cc(F)c1F)C(=O)Nc1ccccc12` [Example 187], the IC50 is more than 1000 nM.
Take `CC(C)NS(=O)(=O)N1C[C@]2(C[C@H]1C#N)C(=O)Nc1ccccc12` [Example 57]: the IC50 was more than 1000 nM.
`N#C[C@@H]1C[C@@]2(CN1C(=O)NCCc1cc3ccccc3[nH]1)C(=O)Nc1ccccc12` [Example 131]: the IC50 was more than 1000 nM.
`N#C[C@@H]1C[C@@]2(CN1C(=O)C(=O)N[C@H]1CC[C@@H](NC(=O)c3ccccc3)CC1)C(=O)Nc1ccccc12` [Example 151]: the concentration for half-maximal inhibition (IC50) was more than 1000 nM.
For `CCCC(CCC)(CCC)NC(=O)C(=O)N1C[C@]2(C[C@H]1C#N)C(=O)Nc1ccccc12` [Example 185], the IC50 fell in the range of 100 to 1000 nM.
Consider `C[C@]1(O)CC[C@@H](NC(=O)C(=O)N2C[C@]3(C[C@H]2C#N)C(=O)Nc2ccccc23)CC1` [Example 178], for which the IC50 was more than 1000 nM.
The figure for `N#C[C@@H]1C[C@@]2(CN1S(=O)(=O)C1CCCC1)C(=O)Nc1ccccc12` [Example 128] is more than 1000 nM; for `N#C[C@@H]1C[C@@]2(CN1C(=O)OC1CCCC1)C(=O)Nc1ccccc12` [Example 70] it is more than 1000 nM.
The figure for `CC(=O)N[C@H]1CC[C@@H](NC(=O)C(=O)N2C[C@]3(C[C@H]2C#N)C(=O)Nc2ccccc23)CC1` [Example 169] is more than 1000 nM; for `N#C[C@@H]1C[C@@]2(CN1C(=O)C(=O)NCc1ccccc1)C(=O)Nc1ccccc12` [Example 80] it is 100 to 1000 nM; for `N#C[C@@H]1C[C@@]2(CN1C(=O)OC1CCCCC1)C(=O)Nc1ccccc12` [Example 77] it is more than 1000 nM.
The figure for `N#C[C@@H]1C[C@@]2(CN1S(=O)(=O)NCc1nccs1)C(=O)Nc1ccccc12` [Example 63] is more than 1000 nM; for `N#C[C@@H]1C[C@@]2(CN1C(=O)[C@H](Cc1ccccc1)C(=O)NC1CC1)C(=O)Nc1ccccc12` [Example 116] it is 100 to 1000 nM.
As for `N#C[C@@H]1C[C@@]2(CN1S(=O)(=O)Nc1ccc(F)cc1)C(=O)Nc1ccccc12` [Example 62], the IC50 is more than 1000 nM.
For `N#C[C@@H]1C[C@@]2(CN1NC(=O)c1ccccc1)C(=O)Nc1ccccc12` [Example 142], the IC50 was more than 1000 nM.
The figure for `N#C[C@@H]1C[C@@]2(CN1C(=O)C(=O)Nc1cncc(C(F)(F)F)c1)C(=O)Nc1ccccc12` [Example 199] is more than 1000 nM; for `CCCCCCNC(=O)C(=O)N1C[C@]2(C[C@H]1C#N)C(=O)Nc1ccccc12` [Example 156] it is 100 to 1000 nM.
